Consider four compounds from publication PMC3914206.

Format in all cases: binding
Holding throughout (parameters): KINOMEscan: ABL1(F317L)-phosphorylated / KINOMEscan: ABL1(H396P)-nonphosphorylated / KINOMEscan: ABL1(H396P)-phosphorylated / KINOMEscan: ABL1(M351T)-phosphorylated / KINOMEscan: ABL1(T315I)-phosphorylated / KINOMEscan: ABL1-nonphosphorylated / KINOMEscan: ABL1-phosphorylated / KINOMEscan: ACVR2A / KINOMEscan: ACVR2B / KINOMEscan: ADCK3 / KINOMEscan: ADCK4 / KINOMEscan: AKT1 / KINOMEscan: AKT3 / KINOMEscan: ALK / KINOMEscan: ARK5 / KINOMEscan: AURKA / KINOMEscan: AURKC / KINOMEscan: BIKE / KINOMEscan: BMPR1A / KINOMEscan: BMPR1B / KINOMEscan: BMX / KINOMEscan: BRK / KINOMEscan: BRSK1 / KINOMEscan: BRSK2 / KINOMEscan: CAMK1 / KINOMEscan: CAMK1D / KINOMEscan: CAMK1G / KINOMEscan: CAMK2A / KINOMEscan: CAMK2B / KINOMEscan: AAK1 / KINOMEscan: CAMK2D / KINOMEscan: CAMK2G / KINOMEscan: ABL1(F317I)-nonphosphorylated / KINOMEscan: ABL1(F317I)-phosphorylated / KINOMEscan: ABL1(F317L)-nonphosphorylated: unit: % Ctrl
Details in all cases: Compound Concentration 10 µM

Assay [1] addresses T1, panel of 442 kinases (Homo sapiens, UniProt P54764).
T1 construct: purchased KINOMEscan
An excerpt: (§1) We assessed the selectivity of members of this scaffold using the KINOMEscan methodology across a near comprehensive panel of 442 kinases [[18,27]].

In assay [2] the target is T2, panel of 442 kinases (Homo sapiens, UniProt Q14012).
T2 construct: purchased KINOMEscan
T2 sequence (Q14012 whole entry): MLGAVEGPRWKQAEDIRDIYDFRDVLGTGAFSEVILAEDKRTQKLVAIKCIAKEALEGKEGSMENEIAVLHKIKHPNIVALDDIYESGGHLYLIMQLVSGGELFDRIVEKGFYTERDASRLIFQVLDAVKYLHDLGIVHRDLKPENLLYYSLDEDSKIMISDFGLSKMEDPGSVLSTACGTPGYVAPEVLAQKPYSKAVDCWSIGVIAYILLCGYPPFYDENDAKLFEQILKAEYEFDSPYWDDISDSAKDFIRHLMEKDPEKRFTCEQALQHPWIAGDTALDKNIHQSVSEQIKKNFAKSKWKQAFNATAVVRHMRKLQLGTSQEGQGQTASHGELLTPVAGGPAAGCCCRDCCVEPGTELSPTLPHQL
Excerpt: as §1

Assay [3] addresses T3, panel of 442 kinases (Homo sapiens, UniProt Q9Y6M4).
T3 construct: purchased KINOMEscan
Excerpt: as §1

T3 sequence (Q9Y6M4 whole entry): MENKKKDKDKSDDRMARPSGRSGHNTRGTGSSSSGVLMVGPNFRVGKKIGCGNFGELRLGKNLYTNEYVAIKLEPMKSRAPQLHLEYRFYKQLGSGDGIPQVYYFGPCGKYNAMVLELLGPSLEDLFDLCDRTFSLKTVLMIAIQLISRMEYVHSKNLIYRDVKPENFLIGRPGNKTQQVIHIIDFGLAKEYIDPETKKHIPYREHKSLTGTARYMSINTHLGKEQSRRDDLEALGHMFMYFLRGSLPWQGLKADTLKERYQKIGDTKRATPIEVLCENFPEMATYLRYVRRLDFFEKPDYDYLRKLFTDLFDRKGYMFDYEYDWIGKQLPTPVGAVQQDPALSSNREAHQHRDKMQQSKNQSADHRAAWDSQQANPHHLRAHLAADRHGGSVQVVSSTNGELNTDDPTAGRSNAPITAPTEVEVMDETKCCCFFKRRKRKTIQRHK
T1 sequence (P54764 20-986): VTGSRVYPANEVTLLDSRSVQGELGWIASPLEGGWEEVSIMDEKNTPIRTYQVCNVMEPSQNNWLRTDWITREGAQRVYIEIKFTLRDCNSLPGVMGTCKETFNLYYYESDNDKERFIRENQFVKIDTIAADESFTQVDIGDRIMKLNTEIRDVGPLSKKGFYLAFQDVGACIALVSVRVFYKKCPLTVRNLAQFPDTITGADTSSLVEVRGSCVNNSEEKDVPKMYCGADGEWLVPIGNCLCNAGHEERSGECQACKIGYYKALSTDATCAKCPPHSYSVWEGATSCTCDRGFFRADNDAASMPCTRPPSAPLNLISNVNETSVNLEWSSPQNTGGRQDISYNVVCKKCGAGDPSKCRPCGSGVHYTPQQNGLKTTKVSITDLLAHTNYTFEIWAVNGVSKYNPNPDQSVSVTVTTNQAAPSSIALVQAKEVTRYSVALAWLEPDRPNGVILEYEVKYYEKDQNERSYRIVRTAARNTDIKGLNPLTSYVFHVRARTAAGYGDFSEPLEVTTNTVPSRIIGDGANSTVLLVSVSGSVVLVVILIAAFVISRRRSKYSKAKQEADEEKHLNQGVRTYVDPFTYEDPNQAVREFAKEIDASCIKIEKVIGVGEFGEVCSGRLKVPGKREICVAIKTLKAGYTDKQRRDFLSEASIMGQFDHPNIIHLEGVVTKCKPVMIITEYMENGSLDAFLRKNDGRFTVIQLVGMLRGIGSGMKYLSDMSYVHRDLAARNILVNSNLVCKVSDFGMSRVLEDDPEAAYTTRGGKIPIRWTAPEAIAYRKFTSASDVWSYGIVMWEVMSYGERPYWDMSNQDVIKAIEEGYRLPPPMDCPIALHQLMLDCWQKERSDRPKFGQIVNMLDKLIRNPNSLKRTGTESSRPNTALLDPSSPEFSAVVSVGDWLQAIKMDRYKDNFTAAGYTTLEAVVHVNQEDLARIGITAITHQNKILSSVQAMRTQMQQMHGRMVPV

For `COc1cc(C(=O)N2CCC(N3CCN(C)CC3)CC2)ccc1Nc1ncc2c(n1)N(C)c1ccccc1C(=O)N2C` [15 (LRRK2-IN-1)], at panel of 442 kinases [1], the “KINOMEscan: EPHA4” value is 89. Moreover, the “KINOMEscan: CAMK1” value at panel of 442 kinases [2] is recorded as 55. The “KINOMEscan: CSNK1G3” value at panel of 442 kinases [3] worked out at 93.

Regarding `COc1cc(C(=O)N2CCC(N3CCN(C)CC3)CC2)ccc1Nc1ncc2c(n1)N1CCc3cccc(c31)C(=O)N2C` [Compound 24], at panel of 442 kinases [1], the “KINOMEscan: EPHA4” value was 97. In addition, at panel of 442 kinases [2], the “KINOMEscan: CAMK1” value is 68.

For `COc1cc(C(=O)N2CCC(N3CCN(C)CC3)CC2)ccc1Nc1ncc2c(n1)N(C1CCCC1)c1ccccc1C(=O)N2C` [Compound 25, 11-cyclopentyl-2-((2-methoxy-4-(4-(4-methylpiperazin-1-yl)piperidine-1-carbonyl)phenyl)amino)-5-methyl-5H-benzo[e]pyrimido[5,4-b][1,4]diazepin-6(11H)-one], the “KINOMEscan: EPHA4” value at panel of 442 kinases [1] is 100. The “KINOMEscan: CAMK1” value at panel of 442 kinases [2] was found to be 48. On panel of 442 kinases [3], the “KINOMEscan: CSNK1G3” value came out at 96.

Regarding `CCOc1cc(C(=O)N2CCC(N3CCN(C)CC3)CC2)ccc1Nc1ncc2c(n1)N(C1CCCC1)c1ccccc1C(=O)N2C` [Compound 26], the “KINOMEscan: EPHA4” value at panel of 442 kinases [1] is listed as 100. For the same compound, on panel of 442 kinases [2], the “KINOMEscan: CAMK1” value was 37. Further, the “KINOMEscan: CSNK1G3” value at panel of 442 kinases [3] turned out to be 91.
